Assay results published in US8258119B2, “Anti-cancer drugs and uses relating thereto for metastatic malignant melanoma and other cancers” (Kasina Laila Innova Pharmaceuticals, priority 2008, dated 2012).

Columns and labels:
[1] = system: Vascular Endothelial Growth Factor (VEGF); assay: VEGF expression in B16F0 cells by western blot; type: cell-based, mouse; conditions: 50 μg/ml, 24 h
Procedure: B16F0 cells were cultivated in Dulbecco's modified Eagle's red medium (DMEM) (Sigma Life Science, USA) containing 10% fetal bovine serum (FBS) and 4.5 g/l D-glucose. Equal number cells (5×10^4) were seeded in culture dishes (35×10 mm, 11.7 cm^2). The cells were treated with either 50 μg/ml of DTIC or […] for 24 h. The cells incubated with only 0.1% DMSO was considered as vehicle control. After 24 h, the cell lysates were prepared and analyzed for Vascular Endothelial Growth Factor (VEGF) expression by western blot assay as described earlier with appropriate modifications (43).
For Western blot analyses, equal amount of B16F0 cell lysate proteins were separated in 12.5% SDS-PAGE under reducing conditions, and transferred onto nitrocellulose membranes (Bio-Rad, USA). The membranes were blocked with SuperBlock (Thermo scientific, USA) and subsequently reacted with VEGF antibody (Abeam, UK) at 4° C. overnight. Bound antibodies were probed with horseradish peroxidase conjugated secondary antibody and the specific immunoreactions were developed with enhanced chemiluminescence (Thermo scientific, USA). […] The images of immunoreactive bands were captured in Kodak Image Station 4000MM (Carestream Health Inc., New Haven, Conn.) and analyzed densitometrically by Kodak molecular Imaging software, Version 4.5.

[2] = system: B16 F0 mouse melanoma cells; assay: Cell cycle analysis by flow cytometry; type: cell-based; conditions: 24 h, propidium iodide FACS
Procedure: B16 F0 Cells were treated with the indicated concentrations of either vehicle (0.1% DMSO) or DTIC or Compound 6 for 24 h at different concentrations as indicated. The propidium iodide stained cells were analyzed for the distribution of cell cycle by FACS calibur, and the percentage of distribution at different phases of cell cycle was determined using ModFIT software. Data are shown as one representative of at least three independent experiments.
Cell cycle analysis of Compound 6 and DTIC treated B16F0 cells were analyzed by flow cytometry as described earlier with some modifications (42). Briefly, B16F0 cells were cultivated in DMEM containing 10% fetal bovine serum (FBS) in presence of 4.5 g/l D-glucose. The sub confluent cells were treated with either DTIC or Compound 6 and incubated for 24 h. Cells were harvested and prepared single cell suspension in buffer (PBS+2% FBS). The cells were washed twice with cold PBS and then fixed with cold 70% ethanol for 30 min. Ethanol was removed by centrifugation and the cells were suspended and the cell count was adjusted to 10^6 cells per ml. The cells were washed two times with PBS and then the cells were stained with propidium iodide for 30 min at 37° C. in presence of RNase. Finally, the cells were analyzed on FACS Calibur flow cytometry (BD Biosciences, USA). […]

B16F0 cells = assay: B16F0 mouse melanoma cell invasion assay (Matrigel); type: cell-based; conditions: 100 μg/ml, 24 h, compared to vehicle or DTIC
Procedure: The inhibitory effects of DTIC and […] on In vitro invasive ability of B16F0 were tested in cell invasion assay performed with by using Matrigel (BME Cultrex®, R&D Systems, USA) coated cell culture inserts (Becton Dickinson, USA) with 8 μm-pore membrane. Equal number (fifty thousands) of B16F0 cells were applied in each insert well and allowed to attach for 2 h at 37° C. and in presence of 5% CO2. Thereafter, the cellular invasion through the matrigel layer was performed in presence or absence of test compounds. Either 100 μg/ml of DTIC or Compound 6 was applied in the lower chamber of the invasion assembly. 0.1% DMSO was applied in the vehicle control culture chambers. After 24 h treatment, the matrigel layer containing cells was removed with cotton plug and the invaded cells on the other side of the membrane were fixed with methanol for 5 min and then stained with Giemsa. The stained membrane was mounted on a glass slide and number invaded cells were counted in 20 random fields (20× objective) under a light microscope (Nikon Eclipse TS 100).

[3] = system: Human umbilical vein endothelial cells (HUVEC); assay: Endothelial cell migration assay; type: cell-based; conditions: 18 h
Procedure: The methodology of endothelial cell migration assay was essentially the same as described earlier with some modifications (43). FALCON™ Cell Culture inserts (Becton Dickinson, USA) with 8 μm-pores in their PET membrane was coated with 0.1 mg/ml of collagen. Human umbilical vein endothelial cells (HUVEC) were added to the cell culture inserts (Becton Dickinson) at a density of 5×10^4 cells/insert. Cells were allowed to migrate through the insert for 18 h in presence of different concentrations of either DTIC or Compound 6. The control culture containing migration assembly received only 0.1% DMSO. […] The membranes of the inserts were then mounted on glass slides. Cells migrated through the membrane pores were counted in 20 random fields under Nikon Eclipse TS 100 microscope at 20× objective.

[4] = at therapeutic concentrations; cited from earlier work

Row | SMILES | VEGF protein expression [1] | effect on cell cycle distribution [2] | tumor cell invasion (B16F0 cells) | endothelial cell migration [3] | binding to human plasma protein [4]
1 | CN(C)/N=N/c1ccsc1C(=O)O [Compound 6, 3-[(dimethylamino)diazenyl]thiophene-2-carboxylic acid] | down regulation of VEGF protein | induction of cell cycle arrest in G2/M phase | significantly reduced malignant tumor cell invasion | significant inhibition of migration | 
2 | CN(C)/N=N/c1[nH]cnc1C(N)=O [DTIC, 5-(3,3-dimethyl-1-trizeno)-imidazole-4-carboxamide, reference compound] |  |  |  |  | not appreciably bound
